Measured values from publication PMC5919655, “Practical spectrophotometric assay for the dapE-encoded N-succinyl-L,L-diaminopimelic acid desuccinylase, a potential antibiotic target” (PLoS ONE, 2018).

Key:
[1] = biological target: T1, succinyl-diaminopimelate desuccinylase (HiDapE) (Haemophilus influenzae, UniProt P44514); experiment: hydrolysis by purified HiDapE monitored at […] nm (kcat/Km); assay type: biochemical
T1 construct: gene dapE; recombinant HiDapE, His6-tag cleaved with TEV protease
T1 sequence (P44514 whole entry): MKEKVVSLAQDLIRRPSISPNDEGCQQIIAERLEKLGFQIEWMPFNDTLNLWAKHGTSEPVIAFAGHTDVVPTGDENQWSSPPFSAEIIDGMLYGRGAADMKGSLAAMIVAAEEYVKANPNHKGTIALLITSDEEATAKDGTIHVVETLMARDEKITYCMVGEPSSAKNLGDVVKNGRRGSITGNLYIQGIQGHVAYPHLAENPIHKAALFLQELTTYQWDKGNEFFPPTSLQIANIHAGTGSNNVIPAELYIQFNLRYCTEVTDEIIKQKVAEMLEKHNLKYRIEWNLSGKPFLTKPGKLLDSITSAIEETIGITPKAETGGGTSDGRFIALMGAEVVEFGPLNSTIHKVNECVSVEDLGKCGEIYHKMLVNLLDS

[2] = biological target: T1, succinyl-diaminopimelate desuccinylase (HiDapE); experiment: ninhydrin-based assay of purified HiDapE with N6-methyl-L,L-SDAP substrate, […] nm; assay type: biochemical

Compound | hydrolysis by purified HiDapE monitored at 225 nm (kcat/Km) [1] | IC50 [2] [µM]
CN[C@@H](CCC[C@H](NC(=O)CCC(=O)O)C(=O)O)C(=O)O [1b, (2S,6S)-2-(3-Carboxypropanamido)-6-(methylamino)heptanedioic acid] | 3.87x 10^4 M^-1S^-1 | –
OB(O)c1cccs1 [2-thiopheneboronic acid] | – | 111
O=C(O)c1cccc(S)c1 [3-mercaptobenzoic acid] | – | 21.8
